# According to patent US20030187064A1, “Use” (priority 2001, published 2003):
# Several values for one entry are separate records, joined by “and”; a condition that tells them apart may be missing. Equal values may be shown once.
# How the values were obtained:
# [1] = Preserving effect in toothpaste; details: 2000 ppm; compared with sodium benzoate
# [2] = Irritation effect of shampoo on the scalp; details: added to shampoo, 2000 ppm
# [3] = Preserving effect in shampoo; details: 2000 ppm; compared with a normally used preservative
# [4] = Irritation effect of skin cream on the skin; details: added to skin cream, 250 or 2000 ppm
# [5] = Preserving effect in skin cream (oil-in-water); details: 250 or 2000 ppm; compared with methyl paraben
# [6] = tests disclosed in the literature (Baute et al. 1993); cited from earlier work
# [7] = Stability of APP in water; details: water at 24° C.
# Bacillus anthracis = format: cell-based
# [8] = cited from earlier work
# B. anthracis 3.046 = format: cell-based, Bacillus anthracis; details: 24 h at 30° C.
# B. anthracis 204 = format: cell-based, Bacillus anthracis; details: 24 h at 30° C.
# caries = experiment: Caries inhibition by toothpaste with APP; details: added to toothpaste, 2000 ppm
# B. anthracis = format: cell-based, Bacillus anthracis; details: 24 h at 30° C.
# [9] = test system: yeasts and moulds as well as catalase-positive bacteria; details: cited from earlier work
# [10] = test system: Gram-positive bacteria, yeasts, and moulds; details: cited from earlier work
# [11] = test system: aerobic, Gram-negative bacteria; details: cited from earlier work
# bacteria = details: cited from earlier work
# moulds = details: pH of 5.5; cited from earlier work
compound,measurement,setting,value
"O=C1CO[C@H](CO)[C@@H](O)[C@@H]1O [AF, 1,5-anhydro-D-fructose]",Preserving effect in toothpaste,[1],as good preservatives as the commonly used preservative
same,Irritation effect on the scalp,[2],no irritation effect
same,Preserving effect in shampoo,[3],as good preservatives as the commonly used preservative
same,Irritation effect on the skin,[4],no irritation effect
same,Preserving effect in skin cream,[5],as good preservatives as the commonly used preservative
"O=C1C[C@@H](CO)OC=C1O [APP, 1,5-Anhydro-4-deoxy-D-glycero-hex-1-en-3-ulose]",Preserving effect in toothpaste,[1],as good preservatives as the commonly used preservative
same,Irritation effect on the scalp,[2],no irritation effect
same,Function as an antibiotic,[6],did not function satisfactorily as an antibiotic
same,Preserving effect in shampoo,[3],as good preservatives as the commonly used preservative
same,Stability in water,[7]; 2 weeks,stable
same,Stability in water,[7]; after 2 months,completely disappears
same,Sensitivity in well diffusion test (zones of inhibition),Bacillus anthracis,sensitive
same,Irritation effect on the skin,[4],no irritation effect
same,Preserving effect in skin cream,[5],as good preservatives as the commonly used preservative
same,Stability,[8]; pH 1.5-5.5,stable
same,half-life,[8]; pH 11-12.5,5 h
same,APP level causing significant inhibition,B. anthracis 3.046,2000 ppm
same,APP level causing total inhibition,B. anthracis 3.046,3000 ppm
same,APP level causing significant inhibition,B. anthracis 204,4000 ppm and 2000 ppm
same,APP level causing total inhibition,B. anthracis 204,>4000 ppm and 4000 ppm
same,Inhibition of caries,caries,inhibited caries
same,APP level causing significant inhibition,B. anthracis,2000 ppm
same,APP level causing total inhibition,B. anthracis,4000 ppm and >4000 ppm
C/C=C/C=C/C(=O)O [Sorbic Acid],Effective concentration,[9],500-3000 ppm
O=S=O [Sulphur Dioxide],Effective concentration,[10],800-2000 ppm
same,Effective concentration for inhibition,[11],250-500 ppm
Propionic Acid and Propionate,Concentration necessary for inhibition of bacteria,bacteria,> 16000 ppm
same,Concentration inhibiting moulds,moulds,125 to 12500 ppm
